Laboratory results taken from ChEMBL document CHEMBL1201861, “Genomics of Drug Sensitity in Cancer screening data, Wellcome Trust Sanger Institute”.

What was measured:
Assay in all cases: cells
COLO-792 = assay type: functional, cell-based, Homo sapiens; conditions: Homo sapiens, COLO-792
Description: SANGER: Inhibition of human COLO-792 cell growth in a cell viability assay.

COR-L88 = assay type: functional, cell-based; conditions: Homo sapiens;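 note: growth inhibition of COR-L88 cells, read out with a cell viability assay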
Description: SANGER: Inhibition of human COR-L88 cell growth in a cell viability assay.

CP50-MEL-B = assay type: functional, cell-based, Homo sapiens; conditions: Homo sapiens, CP50-MEL-B;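 note: growth inhibition of the human cell line, measured with a cell viability read-out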
Description: SANGER: Inhibition of human CP50-MEL-B cell growth in a cell viability assay.

CTB-1 = assay type: functional, cell-based; conditions: Homo sapiens
Description: SANGER: Inhibition of human CTB-1 cell growth in a cell viability assay.

Calu-6 = assay type: functional, cell-based, Homo sapiens; conditions: Homo sapiens, Calu-6;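 note: growth of human Calu-6 cells, read out by a cell viability assay, IC50 marking inhibition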
Description: SANGER: Inhibition of human Calu-6 cell growth in a cell viability assay.

D-502MG = assay type: functional, cell-based, Homo sapiens; conditions: Homo sapiens, D-502MG
Description: SANGER: Inhibition of human D-502MG cell growth in a cell viability assay.

DJM-1 = assay type: functional, cell-based, Homo sapiens; conditions: Homo sapiens, DJM-1;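 note: growth inhibition of human DJM-1 cells, read out by a cell viability assay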
Description: SANGER: Inhibition of human DJM-1 cell growth in a cell viability assay.

GAK = assay type: functional, cell-based, Homo sapiens; conditions: Homo sapiens, GAK;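 note: cell growth inhibition read out by a cell viability assay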
Description: SANGER: Inhibition of human GAK cell growth in a cell viability assay.

GT3TKB = assay type: functional, cell-based, Homo sapiens; conditions: Homo sapiens, GT3TKB;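 note: growth inhibition of the cell line, read out with a cell viability assay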
Description: SANGER: Inhibition of human GT3TKB cell growth in a cell viability assay.

HD-MY-Z = assay type: functional, cell-based, Homo sapiens; conditions: Homo sapiens, HD-MY-Z;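 note: growth inhibition of HD-MY-Z cells, read out with a cell viability assay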
Description: SANGER: Inhibition of human HD-MY-Z cell growth in a cell viability assay.

HSC-2 = assay type: functional, cell-based, Homo sapiens; conditions: Homo sapiens, HSC-2;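 note: growth inhibition of human HSC-2 cells, read out by a cell viability assay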
Description: SANGER: Inhibition of human HSC-2 cell growth in a cell viability assay.

HT-29 = assay type: functional, cell-based, Homo sapiens; conditions: Homo sapiens, HT-29;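 note: growth inhibition of human HT-29 cells, read out by a cell viability assay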
Description: SANGER: Inhibition of human HT-29 cell growth in a cell viability assay.

J-RT3-T3-5 = assay type: functional, cell-based; conditions: Homo sapiens;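 note: cell viability assay measuring growth inhibition of human J-RT3-T3-5 cells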
Description: SANGER: Inhibition of human J-RT3-T3-5 cell growth in a cell viability assay.

J82 = assay type: functional, cell-based; conditions: Homo sapiens;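 note: growth inhibition of J82 cells, read out with a cell viability assay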
Description: SANGER: Inhibition of human J82 cell growth in a cell viability assay.

KNS-42 = assay type: functional, cell-based, Homo sapiens; conditions: Homo sapiens, KNS-42;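 note: growth inhibition of KNS-42 cells, read out with a cell viability assay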
Description: SANGER: Inhibition of human KNS-42 cell growth in a cell viability assay.

KYSE-180 = assay type: functional, cell-based, Homo sapiens; conditions: Homo sapiens, KYSE-180;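 note: growth inhibition of KYSE-180 cells, read out with a cell viability assay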
Description: SANGER: Inhibition of human KYSE-180 cell growth in a cell viability assay.

LAMA-84 = assay type: functional, cell-based; conditions: Homo sapiens;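 note: growth inhibition of LAMA-84 cells, read out with a cell viability assay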
Description: SANGER: Inhibition of human LAMA-84 cell growth in a cell viability assay.

LAN-6 = assay type: functional, cell-based, Homo sapiens; conditions: Homo sapiens, LAN-6;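 note: growth inhibition of LAN-6 cells, determined with a cell viability assay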
Description: SANGER: Inhibition of human LAN-6 cell growth in a cell viability assay.

LN-405 = assay type: functional, cell-based, Homo sapiens; conditions: Homo sapiens, LN-405
Description: SANGER: Inhibition of human LN-405 cell growth in a cell viability assay.

LU-99A = assay type: functional, cell-based, Homo sapiens; conditions: Homo sapiens, LU-99A;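 note: growth inhibition of LU-99A cells, read out with a cell viability assay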
Description: SANGER: Inhibition of human LU-99A cell growth in a cell viability assay.

LXF-289 cell line = assay type: functional, cell-based, Homo sapiens; conditions: Homo sapiens, LXF-289
Description: SANGER: Inhibition of human LXF-289 cell growth in a cell viability assay.

MHH-ES-1 = assay type: functional, cell-based, Homo sapiens; conditions: Homo sapiens, MHH-ES-1;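 note: cell growth inhibition measured by a cell viability assay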
Description: SANGER: Inhibition of human MHH-ES-1 cell growth in a cell viability assay.

NB13 = assay type: functional, cell-based, Homo sapiens; conditions: Homo sapiens, NB13;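 note: cell viability readout measuring growth inhibition of human NB13 cells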
Description: SANGER: Inhibition of human NB13 cell growth in a cell viability assay.

NCI-H1623 = assay type: functional, cell-based, Homo sapiens; conditions: Homo sapiens, NCI-H1623;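 note: cell viability assay used as the read-out for growth inhibition of NCI-H1623 cells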
Description: SANGER: Inhibition of human NCI-H1623 cell growth in a cell viability assay.

NCI-H2122 = assay type: functional, cell-based, Homo sapiens; conditions: Homo sapiens, NCI-H2122;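 note: growth inhibition of the cells, read out with a cell viability assay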
Description: SANGER: Inhibition of human NCI-H2122 cell growth in a cell viability assay.

NCI-H2170 = assay type: functional, cell-based, Homo sapiens; conditions: Homo sapiens, NCI-H2170;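 note: cell viability assay measuring growth inhibition of human NCI-H2170 cancer cells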
Description: SANGER: Inhibition of human NCI-H2170 cell growth in a cell viability assay.

NCI-H28 = assay type: functional, cell-based, Homo sapiens; conditions: Homo sapiens, NCI-H28;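 note: growth inhibition of human NCI-H28 cells, read out as cell viability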
Description: SANGER: Inhibition of human NCI-H28 cell growth in a cell viability assay.

PANC-03-27 = assay type: functional, cell-based, Homo sapiens; conditions: Homo sapiens, PANC-03-27
Description: SANGER: Inhibition of human PANC-03-27 cell growth in a cell viability assay.

PC-14 = assay type: functional, cell-based, Homo sapiens; conditions: Homo sapiens, PC-14;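 note: cell viability assay measuring inhibition of PC-14 cell growth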
Description: SANGER: Inhibition of human PC-14 cell growth in a cell viability assay.

RPMI-8866 = assay type: functional, cell-based; conditions: Homo sapiens
Description: SANGER: Inhibition of human RPMI-8866 cell growth in a cell viability assay.

SHP77 = assay type: functional, cell-based, Homo sapiens, SHP-77; conditions: Homo sapiens, SHP77;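 note: growth inhibition of human SHP-77 cells measured by a cell viability assay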
Description: SANGER: Inhibition of human SHP-77 cell growth in a cell viability assay.

SK-MEL-28 = assay type: functional, cell-based; conditions: Homo sapiens;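 note: growth inhibition of human SK-MEL-28 cells, read out with a cell viability assay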
Description: SANGER: Inhibition of human SK-MEL-28 cell growth in a cell viability assay.

SK-PN-DW = assay type: functional, cell-based; conditions: Homo sapiens;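 note: growth inhibition measured with a viability assay on these cells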
Description: SANGER: Inhibition of human SK-PN-DW cell growth in a cell viability assay.

SNU-C2B = assay type: functional, cell-based, Homo sapiens; conditions: Homo sapiens, SNU-C2B;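 note: cell viability readout used to measure compound-driven suppression of SNU-C2B cell proliferation, IC50 marking half-maximal growth inhibition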
Description: SANGER: Inhibition of human SNU-C2B cell growth in a cell viability assay.

SAOS-2 = assay type: functional, cell-based, Homo sapiens; conditions: Homo sapiens, SAOS-2;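 note: growth inhibition of human Saos-2 cells determined by a cell viability assay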
Description: SANGER: Inhibition of human Saos-2 cell growth in a cell viability assay.

769-P = assay type: functional, cell-based, Homo sapiens; conditions: Homo sapiens, 769-P
Description: SANGER: Inhibition of human 769-P cell growth in a cell viability assay.

A204 = assay type: functional, cell-based, Homo sapiens; conditions: Homo sapiens, A204;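 note: growth inhibition of human A204 cells, read out with a cell viability assay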
Description: SANGER: Inhibition of human A204 cell growth in a cell viability assay.

A-427 = assay type: functional, cell-based, Homo sapiens; conditions: Homo sapiens, A-427;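 note: growth inhibition of human A-427 cells, read out by a cell viability assay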
Description: SANGER: Inhibition of human A427 cell growth in a cell viability assay.

BB30-HNC = assay type: functional, cell-based, Homo sapiens; conditions: Homo sapiens, BB30-HNC;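 note: growth inhibition of the cultured cell line, read out by a cell viability assay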
Description: SANGER: Inhibition of human BB30-HNC cell growth in a cell viability assay.

BHT-101 = assay type: functional, cell-based, Homo sapiens; conditions: Homo sapiens, BHT-101
Description: SANGER: Inhibition of human BHT-101 cell growth in a cell viability assay.

BPH-1 = assay type: functional, cell-based, Homo sapiens; conditions: Homo sapiens, BPH-1;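 note: cell viability assay measuring growth inhibition of human BPH-1 cells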
Description: SANGER: Inhibition of human BPH-1 cell growth in a cell viability assay.

BV-173 = assay type: functional, cell-based; conditions: Homo sapiens
Description: SANGER: Inhibition of human BV-173 cell growth in a cell viability assay.

C2BBe1 = assay type: functional, cell-based, Homo sapiens; conditions: Homo sapiens, C2BBe1;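 note: growth inhibition of C2BBe1 cells, read out through a viability assay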
Description: SANGER: Inhibition of human C2BBe1 cell growth in a cell viability assay.

CAL-12T = assay type: functional, cell-based, Homo sapiens; conditions: Homo sapiens, CAL-12T;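 note: growth inhibition of human CAL-12T cells, read out with a cell viability assay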
Description: SANGER: Inhibition of human CAL-12T cell growth in a cell viability assay.

TE-9 = assay type: functional, cell-based, Homo sapiens; conditions: Homo sapiens, TE-9;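 note: cell growth inhibition, measured with a cell viability readout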
Description: SANGER: Inhibition of human TE-9 cell growth in a cell viability assay.

TK-10 = assay type: functional, cell-based, Homo sapiens; conditions: Homo sapiens, TK-10;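 note: growth inhibition of TK-10 cells, read out in a cell viability assay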
Description: SANGER: Inhibition of human TK10 cell growth in a cell viability assay.

VM-CUB-1 = assay type: functional, cell-based; conditions: Homo sapiens;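 note: cell viability assay measuring growth inhibition of the human VM-CUB-1 cell line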
Description: SANGER: Inhibition of human VM-CUB-1 cell growth in a cell viability assay.

YKG-1 = assay type: functional, cell-based, Homo sapiens; conditions: Homo sapiens, YKG-1;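 note: cell growth inhibition, read out with a viability assay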
Description: SANGER: Inhibition of human YKG-1 cell growth in a cell viability assay.

CGTH-W-1 = assay type: functional, cell-based, Homo sapiens; conditions: Homo sapiens, CGTH-W-1;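 note: growth inhibition of human CGTH-W-1 cells measured by cell viability assay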
Description: SANGER: Inhibition of human CGTH-W-1 cell growth in a cell viability assay.

COLO-678 = assay type: functional, cell-based, Homo sapiens; conditions: Homo sapiens, COLO-678
Description: SANGER: Inhibition of human COLO-678 cell growth in a cell viability assay.

COLO-680N = assay type: functional, cell-based, Homo sapiens; conditions: Homo sapiens, COLO-680N;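 note: cell viability assay used to measure inhibition of COLO-680N cell growth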
Description: SANGER: Inhibition of human COLO-680N cell growth in a cell viability assay.

With `Nc1ccn([C@@H]2O[C@H](CO)[C@@H](O)[C@@H]2O)c(=O)n1` [CYTARABINE] the IC50 (COLO-792) was 1050 nM, the IC50 (COR-L88) was > 2000 nM and the IC50 (CP50-MEL-B) was > 2000 nM. The IC50 (CTB-1) was 34.4 nM, the IC50 (Calu-6) was > 2000 nM and the IC50 (D-502MG) was > 2000 nM. For the same compound, the IC50 (DJM-1) was > 2000 nM, the IC50 (GAK) was > 2000 nM and the IC50 (GT3TKB) was 341 nM. For the same compound, the IC50 (HD-MY-Z) was 745 nM, the IC50 (HSC-2) was 1460 nM and the IC50 (HT-29) was > 2000 nM. The IC50 (J-RT3-T3-5) was 68.4 nM, the IC50 (J82) was 1620 nM and the IC50 (KNS-42) was > 2000 nM. For the same compound, the IC50 (KYSE-180) was 565 nM, the IC50 (LAMA-84) was 335 nM and the IC50 (LAN-6) was > 2000 nM. The IC50 (LN-405) was > 2000 nM, the IC50 (LU-99A) was 266 nM and the IC50 (LXF-289 cell line) was 251 nM. The IC50 (MHH-ES-1) was 323 nM, the IC50 (NB13) was > 2000 nM and the IC50 (NCI-H1623) was 536 nM. The IC50 (NCI-H2122) was 430 nM, the IC50 (NCI-H2170) was > 2000 nM and the IC50 (NCI-H28) was 1820 nM. For the same compound, the IC50 (PANC-03-27) was 897 nM, the IC50 (PC-14) was 610 nM and the IC50 (RPMI-8866) was 740 nM. The IC50 (SHP77) was > 2000 nM, the IC50 (SK-MEL-28) was 799 nM and the IC50 (SK-PN-DW) was 416 nM. The IC50 (SNU-C2B) was > 2000 nM, the IC50 (SAOS-2) was 682 nM and the IC50 (769-P) was 228 nM. The IC50 (A204) was 311 nM, the IC50 (A-427) was 34.5 nM and the IC50 (BB30-HNC) was > 2000 nM. For the same compound, the IC50 (BHT-101) was 41.8 nM, the IC50 (BPH-1) was > 2000 nM and the IC50 (BV-173) was 516 nM. The IC50 (C2BBe1) was 166 nM, the IC50 (CAL-12T) was > 2000 nM and the IC50 (TE-9) was 1790 nM. It also gave an IC50 (TK-10) of 1730 nM, an IC50 (VM-CUB-1) of 533 nM and an IC50 (YKG-1) of 298 nM. For the same compound, the IC50 (CGTH-W-1) was 182 nM, the IC50 (COLO-678) was > 2000 nM and the IC50 (COLO-680N) was > 2000 nM.

In the case of `CC(=O)O[C@@]12CO[C@@H]1C[C@H](O)[C@@]1(C)C(=O)[C@H](O)C3=C(C)[C@@H](OC(=O)[C@H](O)[C@@H](NC(=O)OC(C)(C)C)c4ccccc4)C[C@@](O)([C@@H](OC(=O)c4ccccc4)[C@H]21)C3(C)C` [DOCETAXEL], the IC50 (COLO-792) is reported as > 10 nM, the IC50 (COR-L88) is reported as > 10 nM and the IC50 (CP50-MEL-B) is reported as 6.93 nM. It also gave an IC50 (CTB-1) of 1.92 nM, an IC50 (Calu-6) of 4.47 nM and an IC50 (D-502MG) of 4.1 nM. For the same compound, the IC50 (DJM-1) was > 10 nM, the IC50 (GAK) was > 10 nM and the IC50 (GT3TKB) was 0.232 nM. The IC50 (HD-MY-Z) was 1.41 nM, the IC50 (HSC-2) was 0.755 nM and the IC50 (HT-29) was 2.8 nM. The IC50 (J-RT3-T3-5) was 2.35 nM, the IC50 (J82) was > 10 nM and the IC50 (KNS-42) was 4.12 nM. For the same compound, the IC50 (KYSE-180) was 1.35 nM, the IC50 (LAMA-84) was > 10 nM and the IC50 (LAN-6) was > 10 nM. The IC50 (LN-405) was 4.82 nM, the IC50 (LU-99A) was > 10 nM and the IC50 (LXF-289 cell line) was 0.758 nM. For the same compound, the IC50 (MHH-ES-1) was 0.7 nM, the IC50 (NB13) was 1.07 nM and the IC50 (NCI-H1623) was 8.56 nM. The IC50 (NCI-H2122) was 1.84 nM, the IC50 (NCI-H2170) was 5.35 nM and the IC50 (NCI-H28) was 3.34 nM. It also gave an IC50 (PANC-03-27) of 1.54 nM, an IC50 (PC-14) of 2.09 nM and an IC50 (RPMI-8866) of 2.81 nM. For the same compound, the IC50 (SHP77) was > 10 nM, the IC50 (SK-MEL-28) was 2.03 nM and the IC50 (SK-PN-DW) was 1.94 nM. For the same compound, the IC50 (SNU-C2B) was > 10 nM, the IC50 (SAOS-2) was 1.68 nM and the IC50 (769-P) was > 10 nM. For the same compound, the IC50 (A204) was 9.34 nM, the IC50 (A-427) was 1.48 nM and the IC50 (BB30-HNC) was 1.05 nM. For the same compound, the IC50 (BHT-101) was 9.8 nM, the IC50 (BPH-1) was 1.02 nM and the IC50 (BV-173) was 5.3 nM. It also gave an IC50 (C2BBe1) of 1.82 nM, an IC50 (CAL-12T) of 3.76 nM and an IC50 (TE-9) of 0.676 nM. The IC50 (TK-10) was 9.77 nM, the IC50 (VM-CUB-1) was 1.05 nM and the IC50 (YKG-1) was 0.707 nM. The IC50 (CGTH-W-1) was 0.542 nM, the IC50 (COLO-678) was > 10 nM and the IC50 (COLO-680N) was 5.08 nM.
